Measured values taken from article PMC10101059, “Rational Design of Stapled Antimicrobial Peptides to Enhance Stability and In Vivo Potency against Polymicrobial Sepsis” (Microbiology Spectrum, 2023).
Values after ≈ are worked out from the molar mass of the structure shown. Read-outs that look alike come from different tables or passages of the source. Peptide text beside a SMILES is read from it.

Tests used:
MDR A. baumannii 1607 = assay: microbe, parasite or virus in culture; type: cell-based, Acinetobacter baumannii; details: MDR 1607
Procedure: (§1) The antimicrobial assay was performed according to a modified National Committee for Clinical Laboratory Standards (NCCLS) protocol ([41], [42]). Briefly, 5 × 10^5 CFU/mL bacterial cells were treated with various peptide concentrations and incubated at 37 ± 2°C for 16 to 20 h. The lowest concentration with clear wells was recorded as the MIC for each test molecule. The clear wells were further plated in Mueller-Hinton agar (MHA) plates, followed by incubation overnight at 37 ± 2°C. After plating, the lowest concentration at which no growth was observed was recorded as the MBC. For the serum sensitivity assay, the antimicrobial activity of the peptides was tested in medium containing 50% human serum ([43], [44]).

MDR A. baumannii 921 = assay: microbe, parasite or virus in culture; type: cell-based, Acinetobacter baumannii; details: MDR 921
Procedure: as §1

MDR A. baumannii 1702 = assay: microbe, parasite or virus in culture; type: cell-based, Acinetobacter baumannii; details: MDR 1702
Procedure: as §1

MDR A. baumannii 2997 = assay: microbe, parasite or virus in culture; type: cell-based, Acinetobacter baumannii; details: MDR 2997
Procedure: as §1

MDR A. baumannii 2088 = assay: microbe, parasite or virus in culture; type: cell-based, Acinetobacter baumannii; details: MDR 2088
Procedure: as §1

MDR A. baumannii 1019 = assay: microbe, parasite or virus in culture; type: cell-based, Acinetobacter baumannii; details: MDR 1019
Procedure: as §1

MDR A. baumannii 2998 = assay: microbe, parasite or virus in culture; type: cell-based, Acinetobacter baumannii; details: MDR 2998
Procedure: as §1

MDR A. baumannii 14B0091 = assay: microbe, parasite or virus in culture; type: cell-based, Acinetobacter baumannii; details: MDR 14B0091
Procedure: as §1

MDR A. baumannii 2982 = assay: microbe, parasite or virus in culture; type: cell-based, Acinetobacter baumannii; details: MDR 2982
Procedure: as §1

MDR A. baumannii 1033 = assay: microbe, parasite or virus in culture; type: cell-based, Acinetobacter baumannii; details: MDR 1033
Procedure: as §1

MDR A. baumannii 3618 = assay: microbe, parasite or virus in culture; type: cell-based, Acinetobacter baumannii; details: MDR 3618
Procedure: as §1

MDR A. baumannii 2962 = assay: microbe, parasite or virus in culture; type: cell-based, Acinetobacter baumannii; details: MDR 2962
Procedure: as §1

Staphylococcus aureus = type: cell-based
Procedure: as §1

Acinetobacter baumannii = assay: microbe, parasite or virus in culture; type: cell-based
Procedure: as §1, with “[44]). The antimicrobial assay was performed in the presence of physiological ions and glucose. The test media were supplemented with MgCl2 (1 mM), CaCl2 (2 mM), NaCl (150 mM), KCl (4.5 mM), NH4Cl (6 μM) ([45], [46]), or glucose (0.2%) ([47]), followed by routine antimicrobial assay as described previously. For the pH sensitivity assay, the antimicrobial assay was performed in media adjusted to pH values ranging from 4 to 12. To estimate the effects of temperature on antimicrobial activity, the peptide was incubated for 1 h at temperatures ranging from 40 to 100°C ([48]), followed by the antimicrobial assay as described above.” for “[44]).”

Escherichia coli = assay: microbe, parasite or virus in culture; type: cell-based
Procedure: as §1

Pseudomonas aeruginosa = assay: microbe, parasite or virus in culture; type: cell-based
Procedure: as §1

[1] = test system: NDM-1 Klebsiella pneumoniae; assay: microbe, parasite or virus in culture; type: cell-based; details: NDM-1
Procedure: as §1

Enterobacter aerogenes = assay: microbe, parasite or virus in culture; type: cell-based
Procedure: as §1

Which MIC (MDR A. baumannii 1607) does the source give for `CC[C@H](C)[C@H](NC(=O)[C@H](C)NC(=O)[C@H](CCCCN)NC(=O)CNC(=O)[C@H](C)NC(=O)[C@H](CO)NC(=O)[C@H](Cc1ccccc1)NC(=O)[C@H](CC(C)C)NC(=O)CNC(=O)CNC(=O)[C@@H](NC(=O)[C@@H](NC(=O)[C@H](Cc1c[nH]cn1)NC(=O)[C@H](Cc1c[nH]cn1)NC(=O)[C@@H](NC(=O)[C@@H](N)Cc1ccccc1)[C@@H](C)CC)[C@@H](C)CC)[C@@H](C)CC)C(=O)N[C@@H](Cc1c[nH]cn1)C(=O)N[C@@H](CCCNC(=N)N)C(=O)N[C@@H](CC(C)C)C(=O)N[C@H](C(=O)N[C@@H](CCCNC(=N)N)C(=O)N[C@@H](CCCNC(=N)N)C(=O)N[C@@H](CCCNC(=N)N)C(=O)N[C@@H](CCCNC(=N)N)C(=O)N[C@@H](CCCNC(=N)N)C(=O)O)[C@@H](C)CC` [TP4, tilapia piscidin 4] (H-FIHHIIGGLFSAGKAIHRLIRRRRR-OH) here?
The MIC was less than 1.56 µM.

What about the MBC (MDR A. baumannii 1607; read-out: MBC) of the same molecule?
Its MBC is less than 1.56 µM.

And the MBC (MDR A. baumannii 921)?
The MBC was less than 1.56 µM.

And the MIC (MDR A. baumannii 921)?
The MIC was less than 1.56 µM.

And the MBC (MDR A. baumannii 1702; read-out: MBC)?
The MBC was less than 1.56 µM.

And the MIC (MDR A. baumannii 1702; read-out: MIC)?
Its MIC is less than 1.56 µM.

What about the MBC (MDR A. baumannii 2997; read-out: MBC) of the same molecule?
The MBC was less than 1.56 µM.

What about the MIC (MDR A. baumannii 2997; read-out: MIC) of the same molecule?
The MIC was less than 1.56 µM.

And the MBC (MDR A. baumannii 2088; read-out: MBC)?
Its MBC is less than 1.56 µM.

What about the MIC (MDR A. baumannii 2088; read-out: MIC) of the same molecule?
The MIC was less than 1.56 µM.

What about the MBC (MDR A. baumannii 1019) of the same molecule?
Its MBC is less than 1.56 µM.

And the MIC (MDR A. baumannii 1019)?
The MIC was less than 1.56 µM.

And the MIC (MDR A. baumannii 2998)?
Its MIC is less than 1.56 µM.

And the MBC (MDR A. baumannii 2998; read-out: MBC)?
The MBC was less than 1.56 µM.

What about the MBC (MDR A. baumannii 14B0091) of the same molecule?
The MBC was less than 1.56 µM.

What about the MIC (MDR A. baumannii 14B0091) of the same molecule?
The MIC was less than 1.56 µM.

What about the MBC (MDR A. baumannii 2982) of the same molecule?
The MBC was 3.13 µM (≈ 9.33 µg/mL).

What about the MIC (MDR A. baumannii 2982) of the same molecule?
The MIC was 3.13 µM (≈ 9.33 µg/mL).

And the MBC (MDR A. baumannii 1033; read-out: MBC)?
The MBC was 6.25 µM (≈ 18.6 µg/mL).

And the MIC (MDR A. baumannii 1033; read-out: MIC)?
The MIC was less than 1.56 µM.

What about the MBC (MDR A. baumannii 3618) of the same molecule?
Its MBC is 6.25 µM (≈ 18.6 µg/mL).

And the MIC (MDR A. baumannii 3618)?
The MIC was 3.13 µM (≈ 9.33 µg/mL).

And the MBC (MDR A. baumannii 2962)?
Its MBC is less than 1.56 µM.

And the MIC (MDR A. baumannii 2962)?
Its MIC is less than 1.56 µM.

And the MBC (Staphylococcus aureus)?
The MBC was 1.56 µM (≈ 4.65 µg/mL).

What about the MIC (Staphylococcus aureus) of the same molecule?
Its MIC is 1.56 µM (≈ 4.65 µg/mL).

What about the MBC (Acinetobacter baumannii; pH 6) of the same molecule?
Its MBC is 3.13−6.25 μM.

What about the MIC (Acinetobacter baumannii; pH 6) of the same molecule?
Its MIC is 3.13−6.25 μM.

What about the MBC (Acinetobacter baumannii; pH 7.4, read-out: MBC) of the same molecule?
Its MBC is 3.13 µM (≈ 9.33 µg/mL).

What about the MIC (Acinetobacter baumannii; pH 7.4, read-out: MIC) of the same molecule?
The MIC was 3.13 µM (≈ 9.33 µg/mL).

And the MBC (Acinetobacter baumannii; pH 8)?
Its MBC is 1.56−3.13 μM.

And the MIC (Acinetobacter baumannii; pH 8)?
Its MIC is 1.56−3.13 μM.

And the MBC (Acinetobacter baumannii; pH 10, read-out: MBC)?
The MBC was 0.78 µM (≈ 2.33 µg/mL).

What about the MIC (Acinetobacter baumannii; pH 10, read-out: MIC) of the same molecule?
The MIC was 0.78 µM (≈ 2.33 µg/mL).

What about the MBC (Escherichia coli) of the same molecule?
The MBC was 3.13 µM (≈ 9.33 µg/mL).

What about the MIC (Escherichia coli) of the same molecule?
The MIC was 3.13 µM (≈ 9.33 µg/mL).

What about the MBC (Pseudomonas aeruginosa; read-out: MBC) of the same molecule?
Its MBC is 12.5 µM (≈ 37.3 µg/mL).

What about the MIC (Pseudomonas aeruginosa; read-out: MIC) of the same molecule?
Its MIC is 12.5 µM (≈ 37.3 µg/mL).

What about the MBC [1] of the same molecule?
Its MBC is 6.25 µM (≈ 18.6 µg/mL).

What about the MIC [1] of the same molecule?
The MIC was 6.25 µM (≈ 18.6 µg/mL).

And the MBC (Enterobacter aerogenes)?
Its MBC is 0.78 µM (≈ 2.33 µg/mL).

And the MIC (Enterobacter aerogenes)?
The MIC was 0.78 µM (≈ 2.33 µg/mL).
